Measured values: patent publication US20160015064A1, “COMPOUNDS, COMPOSITIONS, AND METHODS FOR MODULATING SWEET TASTE” (CHROMOCELL CORPORATION, priority 2013, published 2016)

What was measured:
[1] = system: perception of the sweet taste of an aqueous solution of sweetener; experiment: Ranking sip and spit test of sweetness perception (R index); type: in vivo, humans; settings: compound 10 ppm, vs negative control
Method: The effect of the test compounds on the perception of the sweet taste of an aqueous solution of sweetener in humans was evaluated using a ranking “sip and spit” method.
(§1) The aqueous sweetener solutions were prepared by adding, fructose, sucrose or glucose (by weight), to water to achieve the desired concentration.
(§2) Compounds were first prepared as a 500-fold concentrated stock solution in 100% ethanol. These concentrated stocks were then added to the aqueous sweetener solutions to result in a final ethanol concentration of 0.2%. The control (positive and negative) samples were also normalized to 0.2% ethanol.
In the ranking test used for compound evaluation, taste panelists (n=15), rank samples in increasing order of sweetness. One set, comprising of 6 samples, was presented to each panelists at a given time and are asked to rank them in order of increasing sweetness.
Panelists were instructed not to eat or drink (except water) for at least 1 h before the test. During the test, panelists were instructed to sip each sample, swirl it around their mouth and then expectorate. After tasting each set, panelists were instructed to rank the 6 samples within the set from least sweet to most sweet. Where rank 1—is lowest in sweetness and rank 6—is highest in sweetness. Panelists cleansed their palates by rinsing with water, eating a cracker and waiting for an interval of 10 minutes. All samples were tasted at ambient temperatures. Each sample was tasted twice.
R index analysis was utilized to determine the degree of difference between a test and control sample. It indicates the level of discrimination between two samples. […] A positive control sample was used to assess the ability of the panelists to accurately discriminate sweetness perception differences from the negative control.

[2] = system: perception of the sweet taste in an aqueous environment; experiment: Trained descriptive analysis (DA) panel, sweet attribute; type: in vivo, humans; settings: for Compound effects beyond the additive effect of inherent sweetness: 4% fructose and 8% sucrose
Method: The effect of the test compounds on the perception of the sweet taste in an aqueous environment, in the absence or presence of carbohydrate sweeteners, was evaluated using a descriptive analysis methodology with a group of trained panelists, as follows.
Candidate panelists were recruited, with prescreening and personal interviews, and were assessed for their ability to detect, recognize and differentiate basic taste attributes or mixtures thereof as part of a standardized acuity test. These candidate panelists were also assessed for their innate ability to identify flavors, and to rank on intensity scales. Other senses such as smell and vision were also included as part of the assessment. Candidates also were screened for their ability to use the language to describe and articulate ideas.
Selected candidates proceeded to training as a group in three phases: (1) Lexicon development, (2) Concept alignment, and (3) Scaling descriptors. During lexicon development, panelists evaluated products appropriate for use in the study to generate and align on terms describing the flavor, taste, aromatic, trigeminal, and temporal attributes. During concept alignment, the panel evaluated the products mentioned above to clarify and confirm the attributes that were generated during lexicon development using reference standards that appropriately define each attribute; these are either physical references (e.g. sucrose solutions) or verbal descriptions (e.g. overall flavor). Product terms and concepts were validated during this portion of the study.
In the last phase, scaling descriptors, the panel participated in a series of exercises focused on ordering and ranking samples according to relative attribute intensity, measuring attribute intensity using a defined length of line scale. Whenever possible, different levels or concentration of references were used as anchors to facilitate use of the scale. Panelists were provided with blinded references at this stage to evaluate their understanding and perception of the scale.
The panel used in this example was trained to reference sweet attributes in an absolute manner, such that a particular concentration of sweetener is always measured by the panelists at the same point using a 15 cm line scale where each cm represents a 1% increase in sucrose to cover the range of 0% to 15% sucrose. For the rest of the attributes, the panel was trained using a hybrid approach between descriptive analysis methods (e.g. quantitative descriptive analysis, the sensory spectrum, etc.) well-known to those skilled in the art.
The trained panel was then used for a descriptive analysis assessment for Compounds 1, 2 and 3 in aqueous solutions at pH 3 and pH 7. Each of the three compounds was tested at 35 ppm in sucrose and fructose sweeteners. In addition, Compounds 1, 2 and 3 were also examined in water at pH 3 and pH 7 to assess for any inherent sweetness.
The aqueous sweetener solutions were prepared by adding, fructose or sucrose (by weight), to water to achieve the desired concentration. Aqueous sucrose solutions at pH 3 were buffered using a final concentration of 0.096% Citric Acid plus 0.036% Sodium Citrate while aqueous fructose solutions at pH 3 were buffered using a final concentration of 0.06% Citric Acid and 0.0225% Sodium Citrate.
Compounds were first prepared as a […] concentrated stock solution in 100% ethanol. These concentrated stocks were then added to the aqueous sweetener solutions to result in a final ethanol concentration of 0.2%. In addition to compounds, a solubilizing agent at a final concentration of 0.02% was added to the aqueous sweetener solutions. Control samples were also balanced with 0.2% ethanol and in certain cases 0.02% solubilizing agent.
Both control (aqueous sweetener solutions without compound) and variant (aqueous sweetener solutions with compound) samples were blinded and randomized (by sweetener and pH blocks). […]

[3] = system: perception of the sweet taste of an aqueous solution of sweetener; experiment: Two-alternative forced choice sip and spit method (2AFC); type: in vivo, humans
Method: The effect of the test compounds on the perception of the sweet taste of an aqueous solution of sweetener in humans was evaluated using a two-alternative forced choice “sip and spit” method (2AFC).
as §1
as §2, with “0.2% ethanol. This level of ethanol was not seen to contribute any perceived sweetness.” for “0.2% ethanol.”
The 2AFC test used for compound evaluation was a blind and randomized test where taste panelists (n=15) evaluate a pair of sweetener solutions at a time—one sample contains aqueous sweetener solution plus compound (i.e. test) while the other contains aqueous sweetener solution at higher concentration without compound (i.e. positive control). Each test sample was compared against a positive control. For example, if the test sample contained 1× sweetener concentration with compound (e.g. 5% sucrose with compound), the positive control sample contained a 1.1× sweetener concentration (e.g. 5.5% sucrose without compound).
Panelists were instructed not to eat or drink (except water) for at least 1 h before the test. During the test, panelists were instructed to sip each sample, swirl it around their mouth and then expectorate. After tasting each sample in the pair, panelists were instructed to record the sample that is “sweeter” in taste. Panelists cleansed their palates by rinsing with water, eating a cracker and waiting for an interval of about 5 minutes. Each pair was tasted twice. All samples were tasted at ambient temperatures. Data were analyzed using binomial probabilities.
Approximate levels of sweetness enhancement in column 5 of Table 2 were calculated as follows:
Approximate levels of sweetness enhancement=Sweetener concentration of positive control surpassed by the test sample, divided by sweetener concentration for compound-containing sample (e.g. 1.15×=5.75% sucrose/5% sucrose).

[4] = system: flavor; settings: DuBois, et al., J. Med. Chem., 1981; cited from earlier work
[5] = 4% fructose, pH 3, 35 ppm compound plus solubilizing agent
[6] = 4% fructose, pH 7, 35 ppm compound plus solubilizing agent
[7] = 8% sucrose, pH 3, 35 ppm compound plus solubilizing agent
[8] = 8% sucrose, pH 7, 35 ppm compound plus solubilizing agent

## COc1ccc(C2CC(=O)c3c(O)cccc3O2)cc1O (racemic) [Compound 1, 5-hydroxy-2-(3-hydroxy-4-methoxyphenyl)chroman-4-one]
[1]; 4% fructose test sample
  R Index Score: 90
[1]; 5% sucrose test sample, significant at R index ≧60
  R Index Score: 93
[2]; [5]
  DA Panel Average Sweetness Intensity Score (on 15 cm scale): 6.94
  Fold enhancement of sweetness perception as compared to control sweetener solution: 1.38X
[2]; [6]
  DA Panel Average Sweetness Intensity Score (on 15 cm scale): 7.80
  Fold enhancement of sweetness perception as compared to control sweetener solution: 1.78X
[2]; [7]
  DA Panel Average Sweetness Intensity Score (on 15 cm scale): 9.31
  Fold enhancement of sweetness perception as compared to control sweetener solution: 1.29X
[2]; [8]
  DA Panel Average Sweetness Intensity Score (on 15 cm scale): 9.97
  Fold enhancement of sweetness perception as compared to control sweetener solution: 1.33X
[2]; citric acid-citrate solution pH 3, no sweetener, 35 ppm compound plus solubilizing agent
  DA Panel Average Sweetness Intensity Score (on 15 cm scale): 1.14
[2]; citric acid-citrate solution pH 3, 35 ppm compound plus solubilizing agent
  Perceived inherent sweetness compared to solubilizing agent alone: do not show further significant increase in perceived inherent sweetness
[2]; pH 3, 35 ppm
  Compound effects beyond the additive effect of inherent sweetness: super-additive effects
[2]; pH 3, fructose and sucrose, 35 ppm, ** p<0.01
  Perceived sweetness vs control sweetener solutions (FIG. 2): significant increase in perceived sweetness
[2]; pH 7, 35 ppm
  Compound effects beyond the additive effect of inherent sweetness: super-additive effects
[2]; pH 7, fructose and sucrose, 35 ppm, ** p<0.01
  Perceived sweetness vs control sweetener solutions (FIG. 1): significant increase in perceived sweetness
[2]; water pH 7, no sweetener, 35 ppm compound plus solubilizing agent, 1 cm = 1% sucrose
  DA Panel Average Sweetness Intensity Score (on 15 cm scale): 1.57
[2]; water pH 7, 35 ppm compound plus solubilizing agent
  Perceived sweetness compared to solubilizing agent alone (inherent sweetness): further increase in perceived sweetness
[3]; test sample 4% fructose, compound 25 ppm with positive 2AFC
  Fold increase in perceived sweetness: >1.20X
[3]; test sample 5% sucrose, compound 15 ppm with positive 2AFC, positive control surpassed / test sweetener concentration
  Fold increase in perceived sweetness: >1.15X
[3]; test sample 6.5% glucose, compound 10, 25 ppm with positive 2AFC
  Fold increase in perceived sweetness: >1.15X
[4]
  Reported flavor (bitter): bitter flavor in a significant portion of tasters
  Reported flavor (sweet): sweet flavor
